Results from patent US8580769B2, “Treatment of obesity, metabolic syndrome, and diabetes with protein kinase C inhibitors” (The United States of America as represented by the …, priority 2011, dated 2013).

Tests used:
total (ι plus ζ) aPKC = assay: aPKC activity and phosphorylation in intact human hepatocytes; assay type: cell-based; conditions: for phosphorylation of aPKC auto(trans)phosphorylation sites (p-threonine-555/560-PKC-ι/ζ): intact human hepatocytes
Excerpt: Human cryo-preserved hepatocytes (70-90% viability) were obtained from the Zen-Bio Corp (Research Triangle Park, North Carolina). These hepatocytes were harvested after perfusion with collagenase-containing buffer of livers surgically removed from non-diabetic patients (2 females and 6 males; ages, 43-60 years, 51±3 (mean±SEM); BMI, 23-35, 30±2) and T2DM patients (2 females and 3 males, ages, 46-68 years, 60±4; BMI, 27±2; all insulin-requiring) who had been maintained as transplant donors, but were ultimately rejected for administrative reasons. To maximize the importance of comparative differences, hepatocytes from T2DM and non-diabetic patients, and of similar age and sex, were routinely incubated and assayed side-by-side.
After thawing, the hepatocytes were distributed (approximately 10^6 cells per 100 mm plate) and incubated approximately 16 hours overnight in Dulbecco's minimal essential medium containing 5% fetal calf serum, 100 units/ml sodium-penicillin, 100 μg/ml streptomycin-sulfate, 1 μM insulin and 2 μM dexamethasone. After washing, cells were incubated first for 2 hours in William's E medium (Sigma-Aldrich, St. Louis, Mo., catalog no. W1878) containing GLUTAMAX™ (Gibco/Invitrogen, Carlsbad, Calif.), 100 units/ml sodium-penicillin, 100 μg/ml streptomycin-sulfate, 10 μM insulin, 100 nM dexamethasone, and then for 2 hours in William's E medium containing 100 units/ml sodium penicillin, 100 μg/ml streptomycin-sulfate, 100 nM dexamethasone, 0.25 mg/ml transferrin, 0.25 μg/ml sodium selenite and 10 μM insulin. Cells were then washed and incubated for 3 hours in the same medium, but lacking insulin. Where indicated, […], […] After incubation, cells were sonicated in homogenizing buffer.
Tissue and Immunoprecipitate Preparations: As previously described (Standaert et al., J. Biol. Chem. 279:24929-24934, 2004; Sajan et al., J. Lipid Res. 50:1133-1145, 2009; Sajan et al., Diabetologia 52:1197-1207, 2009; Farese et al., J. Clin. Invest. 117:2289-2301, 2007) hepatocytes and tissues from in vivo experiments were homogenized in ice-cold buffer containing 0.25 M sucrose, 20 mM Tris/HCl (pH 7.5), 2 mM EGTA, 2 mM EDTA, 1 mM phenylmethylsulfonyl fluoride (PMSF), 20 μg/ml leupeptin, 10 μg/ml aprotinin, 2 mM Na4P2O7, 2 mM Na3VO4, 2 mM NaF, and 1 μM microcystin. After centrifugation for 10 minutes at 700×g to remove unbroken cells, debris, nuclei, and floating fat, cell lysates were stored at −70° C. After addition of 1% TRITON® X-100, 0.6% Nonidet and 150 mM NaCl, lysates were cleared of insoluble materials by low-speed centrifugation and subsequently immunoprecipitated with antibodies that target: (a) aPKCs (rabbit polyclonal antiserum from Santa Cruz Biotechnologies (Santa Cruz, Calif.) that recognizes C-termini of both PKC-λ and PKC-ζ); and (b) Akt2 (Upstate Cell Signaling/Millipore, Billerica, Mass.). Immunoprecipitates were collected on Sepharose-AG beads (Santa Cruz Biotechnologies).
aPKCι Assays: aPKC enzyme activity was measured as previously described (Standaert et al., J. Biol. Chem. 279:24929-24934, 2004; Sajan et al., J. Lipid Res. 50:1133-1145, 2009; Sajan et al., Diabetologia 52:1197-1207, 2009; Farese et al., J. Clin. Invest. 117:2289-2301, 2007). […]

Het-MλKO mice = assay: clinical parameters in Het-MλKO mice (model of obesity/metabolic syndrome/T2DM); assay type: in vivo, mouse; conditions: for serum glucose levels following acute insulin treatment: insulin 1 U/kg i.p.; for basal serum glucose levels (before insulin): s.c. once daily (ICAPP 0.4 mg/kg; ICAP 0.5 mg/kg); for hepatic triglycerides / resting (basal) serum insulin levels: 7-day treatment s.c. (ATM 60 mg/kg; ICAPP 0.4 mg/kg)
Excerpt: In Vivo Mouse Studies: Male wild type (WT) and heterozygous muscle-specific PKC-λ knockout (Het-MλKO) mice were generated as described (Farese et al., J. Clin. Invest. 117:2289-2301, 2007) and used at 6-12 months of age, when the O/MS/T2DM phenotype in MλKO mice is well-developed. Mice were housed in a temperature-controlled environment with alternating 12-hour light and dark cycles, and fed ad libitum with standard chow (Harlan Teklad 20/18 with 5% fat, (10% of calories from fat)). All experimental procedures in mice were approved by the Institutional Animal Care and Use Committees of the Roskamp Institute and the University of South Florida College of Medicine, and the James A. Haley Veterans Administration Medical Center Research and Development Committee, Tampa, Fla.
(ICAPP; prepared by Southern Research, Birmingham, Ala.) at 0.4 mg/kg body weight. On the morning of the eighth day of inhibitor treatment, mice were injected intraperitoneally (IP) with 0.9% saline or saline containing 1 U insulin/kg body weight 15 minutes before sacrifice, an optimal time for studies of insulin stimulation of aPKC and Akt in liver, muscle and adipose tissues (Standaert et al., J. Biol. Chem. 279:24929-24934, 2004; Sajan et al., J. Lipid Res. 50:1133-1145, 2009; Sajan et al., Diabetologia 52:1197-1207, 2009; Farese et al., J. Clin. Invest. 117:2289-2301, 2007). After killing, blood, liver, quadriceps muscle and abdominal adipose tissues were rapidly removed and homogenized in buffer with a POLYTRON® homogenizer.
Measurements of Serum Triglycerides, Cholesterol, Free Fatty Acids, Insulin and Glucose: Serum triglycerides, cholesterol, free fatty acids, insulin and glucose levels were measured as previously described (Sajan et al., J. Lipid Res. 50:1133-1145, 2009; Sajan et al., Diabetologia 52:1197-1207, 2009; Farese et al., J. Clin. Invest. 117:2289-2301, 2007).
Both aPKC inhibitors were tested in a murine model of O/MS/T2DM, a heterozygous muscle-specific PKC-λ knockout (Het-MλKO) mice, wherein defective insulin-stimulated glucose transport in muscle leads to glucose intolerance, systemic insulin resistance, hyperinsulinemia, increased hepatic aPKC activity, activation of hepatic SREBP-1c and IKKβ/NFκB, and thus to increased expression of hepatic enzymes engaged in lipogenesis and cytokine production, and ultimately to hepatosteatosis, abdominal obesity, hypertriglyceridemia, fatty acidemia, hypercholesterolemia, hyperinsulinemia, glucose intolerance, fasting hyperglycemia, and diminished glucose-lowering effects of acutely administered insulin (Sajan et al., J. Lipid Res. 50:1133-1145, 2009; Farese et al., J. Clin. Invest. 117:2289-2301, 2007).

[1] = Het-MλKO mice, s.c. once daily (ATM 60 mg/kg; ICAPP 0.4 mg/kg; ICAP 0.5 mg/kg)
[2] = ICAP-treated Mλ-Het KO mice (n = 12), 0.5 mg/kg body weight/day x 8 days s.c., mean ± SEM

Row | SMILES | insulin-provoked increase in aPKC activity (total (ι plus ζ) aPKC; non-diabetic human hepatocytes, 6 hours, 100 nM insulin, 100 nM ICAP) | abdominal fat content (Het-MλKO mice; [1]) | serum cholesterol (Het-MλKO mice; [1]) | serum triglycerides (Het-MλKO mice; [1]) | serum glucose levels following acute insulin treatment (Het-MλKO mice; [1]) | basal serum glucose levels (before insulin) (Het-MλKO mice; Het-MλKO mice) | Abdominal fat (Het-MλKO mice; [2]) | Ad lib-fed serum glucose (Het-MλKO mice; [2]) | serum cholesterol (Het-MλKO mice; [2]) | serum triglycerides (Het-MλKO mice; [2]) | PDK1-dependent phosphorylation of activation loop sites of PKC-ι/ζ (threonine-403/410) (total (ι plus ζ) aPKC; human hepatocytes) | basal immunoprecipitable aPKC activity (total (ι plus ζ) aPKC; human hepatocytes, basal (no insulin)) | phosphorylation of aPKC auto(trans)phosphorylation sites (p-threonine-555/560-PKC-ι/ζ) (total (ι plus ζ) aPKC) | inhibition of insulin-stimulated total (ι plus ζ) aPKC activity in intact human hepatocytes (total (ι plus ζ) aPKC; non-diabetic human hepatocytes, 4 hours) | hepatic triglycerides (Het-MλKO mice; Het-MλKO mice) | resting (basal) serum insulin levels (Het-MλKO mice; Het-MλKO mice) | serum free fatty acids (Het-MλKO mice; Het-MλKO mice, ICAPP 0.4 mg/kg/day s.c., 7 days) | food intake (Het-MλKO mice; Het-MλKO mice, ICAPP-treated) | total aPKC activity in intact hepatocytes (total (ι plus ζ) aPKC; human hepatocytes)
1 | NC(=O)c1ncn([C@@H]2C[C@H](CO)[C@@H](O)[C@H]2O)c1N [ICAP, 1H-imidazole-4-carboxamide 5-amino-1-[2,3-dihydroxy-4-[hydroxymethyl]cyclopentyl]-[1R-(1α,2β,3β,4α)]] | inhibited | diminished | diminished | diminished | diminished | diminished | 26 ± 3.2 mg/g body weight | 139 ± 20 mg/dL | 108 ± 10 mg/dL | 104 ± 7 mg/dL | – | – | – | – | – | – | – | – | –
2 | NC(=O)c1ncn([C@@H]2C[C@H](COP(=O)(O)O)[C@@H](O)[C@H]2O)c1N [ICAPP, 1H-imidazole-4-carboxamide, 5-amino-1-[2,3-dihydroxy-4-[(phosphonooxy)methyl]cyclopentyl]-[1R-(1α,2β,3β,4α)]] | – | marked improvements | marked improvements | marked improvements | marked improvements | marked improvements | – | – | – | – | did not inhibit | resistant | diminished | approximately 50% | marked improvements | marked improvements | marked improvements | not altered | –
3 | O=C([O-])CC([S][Au])C(=O)[O-] (stereo not shown) [ATM, aurothiomalate, reference compound] | – | decreased, virtually to normal | decreased, virtually to normal | decreased, virtually to normal | decreased, virtually to normal | – | – | – | – | – | – | – | diminished | – | decreased, virtually to normal | decreased, virtually to normal | – | – | diminished
